In patent US20170211073A1, “ANTISENSE ANTINEOPLASTIC AGENT” (priority 2014, published 2017):

Columns and labels:
[1] = tested on: human large intestine cancer cells HCT116; experiment: Antitumor effect of YB-1 ASO AmNA into blood, HCT116 subcutaneous tumor; type: in vivo, nude mice
Method: Antitumor effect of administration into blood of YB-1 ASO of AmNA type, of which high safety was confirmed in Example 9 compared with ASO constituted with the conventional BNA, was examined. The human large intestine cancer cells HCT116 were subcutaneously transplanted to the thighs of nude mice. After subcutaneous tumors having a diameter of 6 to 7 mm (average tumor volume, 78 vs. 72 mm^3) were formed, 200 μg/200 μL of YB-1 ASO AmNA was administered (once every two weeks, total 2 times) into the blood from the caudal veins. The diameters of the tumors were measured over time, and tumor volumes calculated in accordance with a calculation formula, (Major axis)×(Minor axis)/2, were compared with those obtained with the control antisense group. The subcutaneous tumors were collected after one week from the second administration (day 28), and weights thereof were compared. In the YB-1 ASO AmNA group, both the tumor diameter and tumor weight were suppressed to about ⅕ of those observed with the control antisense group (FIG. 10, *P<0.05).

YB-1 = YB-1 expression in H226 by real-time RT-PCR; type: cell-based; settings: Lipofectamine RNAiMax
From the text: The #10 AmNA YB-1 antisense was introduced into cells of the malignant mesothelioma cell strain H226 using the reagent Lipofectamine RNAiMax, and expression of YB-1 was examined by real-time RT-PCR.

[2] = tested on: ovarian cancer cell strain SKOV3; experiment: SKOV3-luciferase peritoneum inoculation model; type: in vivo; settings: 10 mg/kg BW intraperitoneally once a week for two weeks, vs control group
Method: Peritoneum inoculation models of ovarian cancer cell strain SKOV3 stably expressing luciferase were prepared. Then, after 1 week from the transplantation of the cancer cells, 10 mg/kg BW of #10 AmNA YB-1 antisense was intraperitoneally administered once a week for two weeks, and the tumor volume was evaluated over time in terms of the luciferase activity.

[3] = tested on: ovarian cancer cell strain SKOV3; experiment: Proliferation of SKOV3 cells; type: cell-based
CD31 = experiment: Microvessel density by CD31 immunostaining in SUIT2-GR subcutaneous tumor; type: in vivo, nude mice; settings: administration into the blood
From the text: The neovascularity marker CD31 in the SUIT2-GR subcutaneous tumor of the treatment experiment (A) was immunostained. As a result, it was observed that the microvessel density was decreased by the administration of #10 AmNA YB-1 antisense into the blood, and thus inhibition of neovascularization was induced (FIG. 14C).

Lewis lung cancer = Lewis lung cancer subcutaneous tumor model; type: in vivo; settings: 10 mg/kg BW caudal vein once a week for three weeks; days 14 and 21; vs control antisense group
Method: Subcutaneous tumor models of lung cancer, Lewis lung cancer, were created. […] The tumor diameters were measured over time.

TCTcctgcaccCTGg (TCTCCTGCACCCTGG; chemistry not fully specified) [#10AmNA]
tumor diameter as fraction of control antisense group ([1]; 200 μg/200 μL caudal vein, once every two weeks, total 2 times): about ⅕
tumor weight as fraction of control antisense group ([1]; day 28): about ⅕
suppression of YB-1 expression (YB-1): Concentration-dependent suppression
tumor volume (luciferase activity) [2]: significantly suppressed
suppression of proliferation [3]: suppression of proliferation
microvessel density (CD31) (CD31): decreased
increase of the tumor (Lewis lung cancer): significantly suppressed
